Test results taken from patent publication US20180251847A1, “METHOD OF PREDICTING THE TUMOR RESPONSE TO DNA METHYLATION INHIBITORS AND ALTERNATIVE THERAPEUTIC REGIMEN FOR OVERCOMING RESISTANCE” (PALACKY UNIVERSITY, OLOMOUC, priority 2014, published 2018).

Legend:
[1] = test system: MCF-7_RDAC; assay: MTT based cell survival assay, DAC resistant MCF-7; parameters: species or system human
Experimental: (§1) For cross validation of data obtained from comparative studies of HCT116 parental and resistant cells, we further developed DAC resistant MCF-7 and HL-60 cell lines. […] However, DAC resistant HL-60 cells were obtained as a gift from the author (Qin T. et al., Blood 2009; 113, 659-67) and was further selected in our laboratory by treatment with 5 μM DAC.
(§2) MTT based cell survival assay was performed in either case, whether to determine the cross-resistance of the DAC resistant cell lines towards inhibitors of DNA methyltransferases, histone acetyltransferases, histone methyltransferases, histone deacetylases, and histone demethylases, or to determine their sensitivity towards selective BET bromodomain inhibitors. […]
(§3) To determine the IC50 of the epigenetic drugs (Tocris Bioscience, Bristol, United Kingdom), four independent experiments were performed using triplicate wells of 96 well plates. […] The wells with medium alone were included alongside as blank for absorbance readings. […]
(§4) Cross resistance was determined as the fold increase, whereas, the sensitivity was determined as the fold decrease in the IC50 of the drugs for the resistant cell lines compared to their genetically identical drug sensitive counterpart.

[2] = test system: HL-60_RDAC; assay: MTT based cell survival assay, DAC resistant HL-60; parameters: species or system human
Experimental: as §1, §2, §3, §4

[3] = test system: R1.2 (HCT116-RDAC); assay: MTT based cell survival assay, DAC resistant HCT116 clone R1.2; parameters: species or system human
Experimental: (§5) The DAC resistant HCT116 cell lines were developed using two methods.
(§6) The method is primarily based on reduction of yellow colored tetrazolium salt, 3-(4,5-dimethylthiazol-2-yl)-2,5-diphenyltetrazolium bromide (MTT) to insoluble purple colored formazan crystals by NAD(P)H-dependent oxidoreductase enzymes in mitochondria of the viable cell.
(§7) Cells in 80 μL of medium were plated in each of the experimental and the control wells, followed by addition of 20 μL medium with five-fold drug concentration to experimental wells. The wells with medium alone were included alongside as blank for absorbance readings. After 72 h of drug treatment, 10 μL MTT (Sigma-Aldrich) prepared in 1×PBS (5 mg/mL) was added to all wells including blank and control, and incubated until the purple formazan crystals were visible after which 100 μL of detergent (10% SDS, pH: 5.5) was added and the plates were incubated overnight to solubilize the formazan and the cellular material.
as §4

[4] = test system: HCT116-RDAC xenografts; assay: Anti-tumor activity in xenografted mouse model, HCT116-RDAC (clone R1.4); type: in vivo, SCID mice; conditions: HCT116-RDAC xenograft, DAC 2.5 mg/kg i.p., 10 doses, day 0-21
Description: For in vivo validation of HCT116 resistance towards DAC and sensitivity of DAC resistant tumors to (+)-JQ1 treatment, we studied the anti-tumor activity of DAC and (+)-JQ1 in HCT116 parental versus a resistant cell clone R1.4 (HCT116_RDAC). Xenografts were established in 11-12 weeks-old female SCID mice, inoculated with 5×10^6 cells, s.c. on both sides of the chest. After 2 weeks, tumors were palpable (average tumor volume 20 mm^3) and mice were assigned into four groups (8 mice/group). Group I: vehicle control for DAC (10:90, DMSO: PBS) and Group II: DAC, 2.5 mg/kg by i.p. injection once a day for 14 days (5 days on, 2 days off), total 10 doses. […] Body weights of the animals were measured daily and tumor volume data were collected twice a week. […]
For determining the anti-tumor activity of the drugs, DAC and (+)-JQ1, tumor volume data for each group were transformed into relative tumor volumes followed by calculation of treatment to control ratio (T/C ratio) for each time point. […] Statistical significance of the data was determined by calculating bootstrap p-value, n=10000, one-sided test of H0: T/C ratio=1, H1: T/C ratio <1 (Jianrong Wu., Journal of Biopharmaceutical Statistics 2010; 20, 954-64). After day 21, statistical significance cannot be measured accurately due to decreased survival of animals in control group. […]

[5] = test system: R1.1 (HCT116-RDAC); assay: MTT based cell survival assay, DAC resistant HCT116 clone R1.1; parameters: species or system human
Experimental: as §5, §6, §7, §4

[6] = test system: R1.4 (HCT116-RDAC); assay: MTT based cell survival assay, DAC resistant HCT116 clone R1.4; parameters: species or system human
Experimental: as §5, §6, §7, §4

[7] = Homo sapiens, HCT-116, 72 h, read-out: Mean IC50

Nc1ncn([C@H]2C[C@H](O)[C@@H](CO)O2)c(=O)n1 [DAC, 2′-deoxy-5-azacytidine]
IC50 ([1]; Homo sapiens, MCF7, read-out: Mean IC50): > 100 µM
fold change (resistance) ([1]; IC50 MCF-7_RDAC / IC50 MCF-7): > 421 fold
IC50 ([2]; Homo sapiens, HL-60, read-out: Mean IC50): > 100 µM
fold change (resistance) ([2]; IC50 HL-60_RDAC / IC50 HL-60): > 1289 fold
IC50 [3, 7]: > 100 µM
fold change (resistance index) ([3]; IC50 R1.2 / IC50 HCT116): (>357) fold
fold effect (anti-tumor activity, aAUC of T/C ratio) [4]: 1.3
IC50 [5, 7]: > 100 µM
fold change (resistance index) ([5]; IC50 R1.1 / IC50 HCT116): (>357) fold
IC50 [6, 7]: > 100 µM
fold change (resistance index) ([6]; IC50 R1.4 / IC50 HCT116): (>357) fold
